# Legend:
# [1] = type: in vivo; conditions: OPC31260 30 and 60 mg/Kg, daily intraperitoneal, 28 days
# Method: (§1) Female Athymic Nude-Foxn1^nu mice (Nu/Nu mice), 7-8 weeks old and weighing ˜25 g were procured from Envigo/Harlan. All animal studies were carried out according to the protocols approved by the University of Kansas Medical Center Institutional Animal Care and Use Committee. Mice were subcutaneously injected on the right flank region with 1×10^6 Caki-1 cells in 100 μl of DMEM medium. One week after injection, palpable tumors appeared and tumor volume was measured with calipers following the formula, […]. Once the tumor volume reached ˜80-100 mm^3, mice were randomized into sub-groups based on the tumor volume. Animals were administered vehicle, OPC31260 (30 mg/Kg BWt.), OPC31260 (60 mg/Kg BWt) or dDAVP (1 μg/Kg BWt.) and vehicle (saline) by daily intraperitoneal injection, or tolvaptan (120 mg/Kg BWt. in 1% aqueous solution of hydroxypropyl methylcellulose-dose derived from previous study^31) or vehicle by daily oral gavage for 28 days. Body weights and tumor volumes were measured every alternate day. At the end of the study, mice were injected with BRDU (100 mg/Kg BWt. by IP) 90 minutes before sacrifice. Tumors were harvested, photographed and weighed. Tumors were flash frozen or paraffin embedded for further analysis.
# Caki-1 cells [2] = experiment: Immunostaining of xenograft tumor sections (Ki-67, BRDU, CD31); type: in vivo, Nu/Nu mice; conditions: OPC31260 IP, tolvaptan 120 mg/Kg oral, dDAVP 1 μg/Kg IP, daily 28 days
# Method: as §1
# Tumor tissues were fixed overnight in 4% paraformaldehyde, dehydrated in a graded alcohol series, and embedded in paraffin for histological analysis as previously described^26. Slides with 5 μm tissue sections were heated in a steamer for 20 min in citrate buffer (pH 6.0) to unmask antigens. Slides were further blocked with 10% goat serum (Invitrogen) and then incubated overnight with primary antibody (V2R, CD31, BRDU, Ki67 and p-H3). After washing the slides with PBST, slides were incubated with appropriate fluorescence-labeled secondary antibody (Invitrogen) and streptavidin HRP conjugated (Invitrogen) secondary antibody for immunoflurorescence and immunohistochemistry, respectively. Slides were also incubated in 4′,6-diamidino-2-phenylindole to visualize nuclei. For immunofluorescence staining, slides were mounted with Fluoromount G (Southern Biotech). For immunohistochemistry, slides were developed with DAB (Vector Laboratories) and counterstained with Harris haematoxylin, dehydrated, and mounted with Permount (Fisher Scientific, Waltham, Mass.). All images were captured using a Nikon 80i microscope (Tokyo, Japan) at the KUMC Imaging Center.
# Caki-1 cells [3] = experiment: MTT cell viability, Caki-1 cells; type: cell-based; conditions: Homo sapiens, 48 h, read-out: dose at which cell viability declined by 50%
# Method: MTT assays were performed to measure cell viability. Briefly, exponentially growing 786-O and Caki-1 cells were seeded in 96 well plates. After 24 h, cells were incubated with different doses of OPC31260 for 48 h. The cells were then incubated in MTT solution (5 mg/mL) for 2 h, following which the MTT solution was removed and the intracellular purple formazan was solubilized in DMSO and quantified by spectrophotometry at […].
# 786-O cells [4] = experiment: Cell cycle analysis (propidium iodide, FACS), 786-O cells; type: cell-based, human; conditions: 24 h, 10 μM or higher doses
# Method: (§2) 786-O and Caki-1 cells were incubated for 24 h with 0, 1, 5, 10, 25 or 50 μM of OPC31260, and stained with propidium iodide for analysis by flow cytometry. Cells were rinsed with PBS and trypsinized, and washed twice with PBS. Single-cell suspensions were fixed using pre-chilled 70% ethanol overnight, and subsequently permeabilized with PBS containing 0.1% Triton X-100, 1 mg/ml propidium iodide (Sigma-Aldrich) and 2 mg/ml DNase-free RNase at room temperature. Flow cytometry was done with a FACS Calibur analyzer (Becton Dickinson, Mountain, View, Calif.), capturing 10,000 events for each sample. Results were analyzed with ModFit LT™ software (Verity Software House, Topsham, Me.).
# Caki-1 cells [5] = experiment: Cell cycle analysis (propidium iodide, FACS), Caki-1 cells; type: cell-based, human; conditions: 24 h, 10 μM or higher doses
# Method: as §2
# 786-O cells [6] = experiment: Annexin V-FITC/PI apoptosis/necrosis, 786-O cells; type: cell-based, human; conditions: 24 h
# Method: (§3) Annexin V-FITC/PI staining was performed for quantification of apoptosis and necrotic cell death using FITC AnnexinV apoptosis detection kit I. Green FITC dye stains apoptotic cells whereas propidium iodide stains necrotic cells with red fluorescence. RCC cells were incubated with OPC31260 for 24 h and washed in cold PBS and resuspended in calcium containing binding buffer (10 mM HEPES, 140 mM NaCl, 5 mM CaCl2; pH 7.4) at a concentration of 1×10^6 cells/ml and stained for 15 min, with 5 μl Annexin V-FITC and 5 μl PI at 1 μg/ml (Cell signaling kit, USA). 10,000 cells were analyzed at an excitation wavelength of 488 nm and emission wavelengths of 530 nm for FITC fluorescence and 610 nm for PI fluorescence. The percentages of viable (Annexin V−PI−), early apoptotic (Annexin V+PI−), late apoptotic/necrotic (Annexin V+PI+) and necrotic cells (Annexin V-PI+) were evaluated with the CellQuestPro® software (Becton, Dickinson, Heidelberg, Germany).
# Caki-1 cells [7] = experiment: Annexin V-FITC/PI apoptosis/necrosis, Caki-1 cells; type: cell-based, human; conditions: 24 h
# Method: as §3
# CCRCC = experiment: Immunocompetent animal model of spontaneous CCRCC; type: in vivo, Vh1Δ/ΔTrp53Δ/ΔRb1Δ/Δ mice; conditions: treatment from 30 weeks after start of tamoxifen till 56 weeks
# Text: The Vh1^Δ/ΔTrp53^Δ/ΔRb1^Δ/Δ mice (Harlander S et al, Nat Med 2017 23(7):869-877) can spontaneously develop CCRCC. Gene deletion of Vhl and tumor suppressors p53 and Rb 1 will be achieved using a Ksp1.3-CreERT2, tamoxifen-inducible system. For the studies, 6-week old Vh1^Δ/ΔTrp53^Δ/ΔRb1^Δ/ΔKsp1.3-CreERT2 mice will be treated with vehicle (saline) or tamoxifen for 14 days used to obtain wildtype control mice and Vh1^Δ/ΔTrp53^Δ/ΔRb1^Δ/Δ mice with RCC stumors. Starting 30 weeks after start of tamoxifen, the wildtype and Vh1^Δ/ΔTrp53^Δ/ΔRb1^Δ/Δ mice will be treated with vehicle, dDAVP, OPC31260, or tolvaptan till 56 weeks. The effect of V2R activation or inhibition will be monitored by MRI as well as by gross and pathological analysis and of kidneys at sacrifice.
compound,measurement,setting,value
"Cc1ccccc1C(=O)Nc1ccc(C(=O)N2CCCC(N(C)C)c3ccccc32)cc1 (centres unmarked) [OPC31260, 5-(dimethylamino)-1-[4-(2-methylbenzamido)benzoyl]-2,3,4,5-tetrahydro-1H-benzazepine]",body weight of the mice,[1],did not significantly change
same,urine osmolality,[1],reduced urine osmolality in a dose dependent manner
same,BRDU staining / incorporation of tumors compared to vehicle,Caki-1 cells [2],significantly reduced
same,Ki-67 staining of tumors compared to vehicle,Caki-1 cells [2],significantly reduced
same,tumor micro-vessel density (CD31 staining),Caki-1 cells [2],significantly reduced
same,IC50,Caki-1 cells [3],5 to 10 µM
same,cells in G2/M phase,786-O cells [4],60-70%
same,cells in G2/M phase,Caki-1 cells [5],60-70%
same,apoptosis,786-O cells [6],increase in apoptosis
same,apoptosis,Caki-1 cells [7],increase in apoptosis
same,expected tumor burden / tumor growth,CCRCC,significantly suppress tumor growth

# Source: patent US11110098B2, “Methods and medicaments for the treatment of renal cell carcinoma” (University of Kansas, priority 2017, dated 2021)
